One data set deals with Huh7/Rep-Feo cells. The data set can be described thus: Cytotoxicity (MTS assay) in Huh7/Rep-Feo replicon cells. It is filed as cell-based. The following applies: Huh7/Rep-Feo, 1.3 to 40 µM, 72 h. As for the experimental part: (§1) The replicon cells were seeded at a density of 1×10^4 cells per well in a 96-well plate and then incubated at 37°C for 24 h. […] Cell viability was measured using a dimethylthiazol carboxymethoxy-phenylsulfophenyl tetrazolium (MTS) assay with a CellTiter 96 aqueous one-solution cell proliferation assay kit (Promega).

Assay in data set [1]: as above
The following applies: human, Huh7/Rep-Feo cells, MTS, read-out: CC50, fifty percent cytotoxicity concentration based on the reduction in cell viability. The data set is classed as cell-based. Here is the method: as §1

Data set [2] has as its system HCV subgenomic replicon RNA of genotype 1b strain N (Huh7/Rep-Feo cells). The data set can be described thus: Luciferase assay in HCV subgenomic replicon cell line Huh7/Rep-Feo. It is filed as cell-based, hepatitis C virus. The following applies: for EC50: Hepatitis C virus, read-out: EC50, fifty percent effective concentration based on the inhibition of HCV replication; for HCV RNA replication (luciferase activity): various concentrations (compound 1: 1.3 to 40 µM), dose-dependent. As for the experimental part: (§2) The Huh7/Rep-Feo cell line, which harbors the subgenomic replicon RNA composed of HCV IRES, the gene of the fusion protein consisting of neomycin phosphotransferase and firefly luciferase, EMCV IRES and a nonstructural gene of genotype 1b strain N in order in Huh7 cell line, was previously established. Thus, the luciferase activity corresponds to the level of HCV RNA replication. The cell line was maintained in Dulbecco's modified Eagle medium containing 10% fetal calf serum and 0.5 mg/mL G418 and cultured in absence of G418 when they were treated with compounds. The Lunet/Con1LUN Sb #26 cell line, which harbors the subgenomic replicon RNA of the Con1 strain (genotype 1b), was described previously. The OR6 cell line, which harbors the full genomic replicon RNA of the O strain (genotype 1b), was described previously. The HCV replicon cell line derived from the genotype 2a strain JFH1 was described previously. The viral RNA derived from the plasmid pJFH1 was transcribed and introduced into Huh7OK1 cells according to the method of Wakita et al.. The virus was amplified by the several times passages. The cells were infected with the virus at a multiplicity of infection (moi) of 1 and then treated with each compound at 24 h post-infection. The culture supernatants were harvested 72 h post-treatment to estimate the viral RNA as described below.
The replicon cells were seeded at 2×10^4 cells per well in a 48-well plate 24 h before treatment. […] The resulting cells were harvested 72 h post-treatment and lysed with cell culture lysis reagent (Promega, Madison, WI). The luciferase activity of each cell lysate was estimated using a luciferase assay system (Promega). The resulting luminescence was detected by a Luminescencer-JNR AB-2100 (ATTO, Tokyo, Japan).

Another data set concerns HCV NS3. Briefly: Western blotting of NS3 in Huh7/Rep-Feo cells. The data set is classed as cell-based, hepatitis C virus. The following applies: Huh7/Rep-Feo cells treated 72 h, dose-dependent. As for the experimental part:
Western blotting was carried out by the method described previously. The antibodies to NS3 (clone 8G-2, mousemonoclonal, Abcam, Cambridge, UK), and beta-actin were purchased from Cell Signaling Technology (rabbit polyclonal, Danvers, MA, USA) and were used as the primary antibodies in this study.
(In general: Immunoblotting shows a protein as a band on a membrane.)

Data set [3] deals with ISGs (Mx1, MxA, IFIT4, ISG15, OAS1, OAS2, OAS3). The data set can be described thus: RT-PCR of interferon stimulated genes in replicon cells. It is filed as cell-based. The following applies: replicon cell line of genotype 1b, 48 h, listed as CAPE. As for the experimental part: Total RNAs were prepared from cells by using the RNAqueous-4PCR kit (Life Technologies, Carlsbad, CA). Viral RNA were prepared from culture supernatants by using the QIAamp Viral RNA mini kit (QIAGEN, Hilden, Germany). The viral RNA genome was estimated by the qRT-PCR method described previously. RT-PCR was carried out by the method described previously which was slightly modified at the PCR step. The PCR samples were incubated once for 10 min at 95°C for an initial activation step of the AmpliTaq Gold DNA Polymerase (Life Technologies), and then subjected to an amplification step of 30 repeats of the cycle consisting of three segments as follow: 0.5 min at 95°C, 1 min at 55°C and 1 min at 72°C. The primers used in this study were as follows: Mx1: 5′-[…]-3′ and 5′-[…]-3′;
(In general: In antiviral work, replicon cells carry a viral genome segment that copies itself.)

Another data set concerns ISRE-promoter activity. Briefly: ISRE reporter assay in Huh7 OK1 cells. It is filed as cell-based. The following applies: 48 h of treatment, interferon alpha 2b as positive control. (A reporter such as luciferase makes a cellular process visible.)
Data set [4] deals with firefly and Renilla luciferases. Briefly: Effect on firefly and Renilla luciferase activities in transfected Huh7 cells. It is filed as cell-based. The following applies: 40 µg/ml, 72 h. As for the experimental part: (§3) Huh7 OK1 cells were transfected with pEF.Rluc.HCV.IRES.Feo or pEF.Rluc.EMCV.IRES.Feo [39]. These transfected cells were seeded at 2×10^4 cells per well in a 48-well plate 24 h before treatment, treated with DMSO or compound 10, and then harvested at 72 h post-treatment. The firefly luciferase activities were measured with a luciferase assay system (Promega). The total protein concentration was measured using the BCA Protein Assay Reagent Kit (Thermo Scientific, Rockford, IL, USA) to normalize luciferase activity. To evaluate the interferon response, Huh7OK1 cells were seeded on a 48 well plate at a density of 2×10^4 cells per well, and transfected with pISRE-TA-Luc (Takara bio, Shiga, Japan) and phRG-TK (Promega). These transfected cells were incubated in the presence of compounds, IFN-α 2b, or DMSO, and then harvested at 48 h post-treatment. The firefly luciferase and Renilla luciferase activities were quantified by using Dual luciferase reporter assay system (Promega).

The test system of data set [5] is HCV full genomic replicon RNA of the O strain (genotype 1b). Briefly: Luciferase assay in OR6 full genome replicon cells. The data set is classed as cell-based, hepatitis C virus. As for the experimental part:
as §2, with “The cells were infected with the virus at a multiplicity of infection (moi) of 1 and then treated with each compound at 24 h post-infection. The culture supernatants were harvested 72 h post-treatment to estimate the viral RNA as described below.” left out
(§4) The replicon cells were seeded at 2×10^4 cells per well in a 48-well plate 24 h before treatment. […] The resulting luminescence was detected by a Luminescencer-JNR AB-2100 (ATTO, Tokyo, Japan).

For data set [6], the system named is HCVcc derived from JFH-1 strain. The data set can be described thus: HCVcc virus production in Huh7 OK1 cells (supernatant viral RNA by qRT-PCR). The data set is classed as cell-based. The following applies: Hepatitis C virus, 24 h, read-out: EC50 of HCV viral production. As for the experimental part: as §2, with “below. […]” for “below.”
A further data set deals with EMCV or HCV IRES. The data set can be described thus: Effect on IRES-dependent translation in transfected Huh7 cells. It is filed as cell-based. The following applies: 40 µg/ml, 72 h. Here is the method: as §3
Data set [7] has as its system HCV subgenomic replicon of genotype 2a strain JFH1. Briefly: Luciferase assay in genotype 2a JFH1 replicon cells. The following applies: Huh7 Rep/Reo-2a, JFH1 (2a). The data set is classed as cell-based, hepatitis C virus. Here is the method: as §2, with “The cells were infected with the virus at a multiplicity of infection (moi) of 1 and then treated with each compound at 24 h post-infection. The culture supernatants were harvested 72 h post-treatment to estimate the viral RNA as described below.” left out
as §4

The test system of data set [8] is HCV subgenomic replicon RNA of the Con1 strain (genotype 1b). The data set can be described thus: Luciferase assay in Con1 LUN Sb #26 replicon cells. It is filed as cell-based, hepatitis C virus. As for the experimental part:
as §2, with “The cells were infected with the virus at a multiplicity of infection (moi) of 1 and then treated with each compound at 24 h post-infection. The culture supernatants were harvested 72 h post-treatment to estimate the viral RNA as described below.” left out
as §4

The text below walks through data of article PMC3866116 (PLoS ONE, 2013).

Read-outs that look alike come from different tables or passages of the source.

On to `O=C(/C=C/c1ccc(O)c(O)c1)OCCc1ccccc1` [Compound 1, Caffeic acid phenethyl ester], for which the cell viability result in the data set on Huh7/Rep-Feo cells is given as “did not affect”. The CC50 at 72 h in [1] came out at 136000 ± 1900 nM. In data set [2] (Huh-7, 72 h), the EC50 is 9000 ± 700 nM. In addition, the “HCV RNA replication (luciferase activity)” value in data set [2] (Huh7/Rep-Feo, 72 h) is recorded as “suppressed”. Moreover, the NS3 protein level entry in the data set with HCV NS3 was “decreased”. Moreover, the “transcriptional expressions of ISGs (Mx1, MxA, IFIT4, ISG15, OAS1, OAS2, OAS3) induced” value in [3] is “did not induce”. The “effect on ISRE-promoter activities” value in the data set on ISRE-promoter activity was “no significant effects”.
On to `CCCCCCCCOC(=O)/C=C/c1ccc(O)c(O)c1` [Compound 10, Caffeic acid n-octyl ester], for which the CC50 at 72 h in [1] (Huh7/Rep-Feo replicon cells) was found to be 71700 ± 8500 nM. Besides, in data set [4], the “enzymatic activities of firefly and Renilla luciferases” value is “not effect”. The EC50 in data set [2] (Huh-7, Huh7/Rep-Feo, subgenome, strain N (1b), 72 h) amounted to 2700 ± 100 nM; in [5] (Hepatitis C virus, OR6, full genome, O (1b), 72 h, read-out: EC50, fifty percent effective concentration based on the inhibition of HCV replication) it was 1500 ± 400 nM; in data set [6], 1800 ± 400 nM; in [7] (Hepatitis C virus, Huh-7, subgenome, 72 h, read-out: EC50, fifty percent effective concentration based on the inhibition of HCV replication), 1000 ± 300 nM; in [8] (Hepatitis C virus, Con1 LUN Sb #26, subgenome, Con1 (1b), 72 h, read-out: EC50, fifty percent effective concentration based on the inhibition of HCV replication) it was 1000 ± 100 nM. For the same compound, the “SI, selectivity index (CC50/EC50)” value in data set [2] (Huh7/Rep-Feo, strain N (1b)) was found to be 26.6; in data set [5] (OR6, O (1b)), 41.1; in data set [7], 60.0; in data set [8] (Con1 LUN Sb #26, Con1 (1b)), 63.1. In data set [2] (Huh7/Rep-Feo, 72 h), the “HCV RNA replication (luciferase activity)” value was “reduced”. In addition, the NS3 protein level result in the data set on HCV NS3 is on record as “reduced”. Moreover, the IRES-dependent translation entry in the data set on EMCV or HCV IRES is “not effect”. In addition, the “effect on ISRE-promoter activities” value in the data set with ISRE-promoter activity is reported as “no significant effects”.
